From patent publication US20200384007A1, “LIPID NANOPARTICLES CONTAINING PHARMACEUTICAL AND/OR NUTRACEUTICAL AGENTS AND METHODS THEREOF” (Board of Regents, The University of Texas System, priority 2019, published 2020)
Read-outs that look alike come from different tables or passages of the source.

Assays:
[1] = tested on: NCI-60 DTP human tumor cell lines; details: cited from earlier work
B16-F10 tumors [2] = experiment: Histology (H&E) of tumor tissues; type: in vivo, C57BL/6 mice; details: tumors collected on day 17 after i.v. treatment
From the text: Tumor tissues were fixed in formalin, embedded, and stained with hematoxylin and eosin (H&E) in the Histological and Tissue Analysis Facility in the Dell Pediatric Research Institute at The University of Texas at Austin.

B16-F10 tumors [3] = experiment: Antitumor activity of orally administered DHA-dFdC-SLNs in tumor-bearing mice (survival); type: in vivo; details: oral gavage
Method: Female C57BL/6 mice (18-20 g) were subcutaneously (s.c) injected with B16-F10 (5×10^5 cells/mouse) in the right flank on day 0. Seven days later, mice were randomized into 4 groups (n=7-8) and orally gavaged with DHA-dFdC (250 μg/mouse) dissolved in vehicle (Naguib, et al., Neoplasia, 2016, 18, (1), 33-48; Valdes, et al., Pharma. Res., 2017, 34, (6), 1224-1232), DHA-dFdC-SLNs (250 μg/mouse of DHA) dispersed in mannitol 5%, or DHA-dFdC-free SLNs dispersed in mannitol 5%. As a control, one group of mice were left untreated. Treatment was repeated every day until day 11. Mice were allowed to rest for two days, and treatment was resumed on day 13 and continued until day 20. Mice were monitored daily until the endpoint (e.g., death, tumor size reaching 15 mm, tumor ulceration, body weight loss of more than 20%, or other signs of severe distress and discomfort).

[4] = Pharmacokinetic studies, oral and i.v. (Example 2); type: in vivo, C57BL/6 mice
Method: The Institutional Animal Care and Use Committee at The University of Texas at Austin approved the animal protocol. Female C57BL/6 mice (6-8 weeks, Charles River Laboratories, Wilmington, Mass.) were fasted for 3 h. Water was allowed ad libitum. Mice were orally gavaged with DHA-dFdC dissolved in a vehicle solution (Tween 80 (10%, w/v), ethanol (5.2% v/v), and mannitol (5%, w/v) in sterile water) (Naguib, et al., Neoplasia, 2016, 18, (1), 33-48; Valdes, et al., Pharma. Res., 2017, 34, (6), 1224-1232) or the DHA-dFdC-SLNs suspended in a sterile mannitol solution (5%, w/v), or intravenously injected with the DHA-dFdC-SLNs suspended in a sterile mannitol solution (5%, w/v). The dose of DHA-dFdC was 2 mg per mouse. Mice (n=3) were euthanized at various time points (e.g., 0.25, 0.5, 1, 2, 5, 8, 12, and 24 h). Blood was collected into heparin-coated tubes, which were then centrifuged at 13,000 rcf for 20 min to isolate plasma. The plasma (200 μL) was mixed with 200 μL of isopropanol and 200 μL of cold PBS, vortexed and then incubated at 4° C. for 5 min Following incubation, 1000 μl of ethyl acetate was added. The mixture was vortexed for 5 min, followed by centrifugation at 18,000 rcf for 5 min. The supernatant was collected and dried under nitrogen. Finally, the residue was re-dissolved in 100 μl of THF, which was then analyzed using HPLC (Naguib, et al., Neoplasia, 2016, 18, (1), 33-48). As internal control 4-(N)-stearoyl 2′,2′-difluorodeoxycytidine (GemC18) was added in the samples before extraction (Sloat, et al., Intl. J. Pharma., 2011, 409, (1), 278-288). Data were analyzed using PK Solver®, assuming a two-compartmental model (Wang, et al., Oncotarget, 2017, 8, (52), 89876).

B16-F10 cells = experiment: In vitro cytotoxicity assay (MTT); type: cell-based, murine; details: Mus musculus, B16F10 cells, 48 h of incubation
Method: (§1) Cytotoxicity of DHA-dFdC-SLNs was evaluated in TC-1, B16-F10, and M-Wnt cells. Cells were seeded into 96-well plates (4000 cells/well for TC-1 and B16-F10 cells, 1000 cells/well for M-Wnt cells) and incubated at 37° C., 5% CO2 overnight. Cells were treated with various concentrations of DHA-dFdC, DHA-dFdC-SLNs, DHA-dFdC-free SLNs, or dimethyl sulfoxide (DMSO) for up to 48 h. As a control, cells were treated with fresh medium. Cell survival was determined using an MTT assay (Naguib et al., Mol. Pharma., 2014; 11(4):1239-1249). DHA-dFdC was dissolved in DMSO and diluted with cell culture media, whereas DHA-dFdC-SLNs and DHA-dFdC-free SLNs were dispersed directly in cell culture media.

M-Wnt cells = experiment: In vitro cytotoxicity assay (MTT); type: cell-based, murine; details: Mus musculus, 24 h of incubation
Method: as §1

pancreatic tumor = details: several mouse models of pancreatic cancer; cited from earlier work
[5] = in an aqueous solution, DBA/2 mice; cited from earlier work
B16-F10 tumors [6] = experiment: Antitumor activity of i.v. DHA-dFdC-SLNs in a mouse model; type: in vivo; details: 50 mg/kg DHA-dFdC on days 7, 10, 13, 16
Method: Female C57BL/6 mice (18-20 g, 6-8 weeks) were subcutaneously (s.c.) injected with B16-F10 (5×10^5 cells/mouse) in the right flank on day 0. Seven days later, mice were randomized in 5 groups (n=5-6) and i.v. injected with DHA-dFdC (1 mg/mouse, equivalent to 50 mg/kg) dissolved a vehicle solution (Tween 80 (10%, w/v), ethanol (5.2%, v/v), and mannitol (5%, w/v) in water), the vehicle solution (as a control) (Naguib et al., Neoplasia, 2016; 18(1):33-48; Valdes et al., Pharma. Res., 2017; 34(6):1224-1232), DHA-dFdC-SLNs (equivalent to 1 mg of DHA-dFdC/mouse), or the equivalent dose of DHA-dFdC-free SLNs; both SLNs were dispersed in sterile mannitol 5%, (w/v). As a control, one group of mice were left untreated. Treatments were repeated every 3 days for a total of 4 times. Mouse health and tumor growth were monitored daily. Tumor size was measured 2-3 times a week, and tumor volume was calculated as: volume (mm^3)=(length×width^2)/2. Mice were euthanized 17 days after B16-F10 cell injection, and tumor tissues were collected for histology study. For untreated mice, the length of some of the tumors reached 15 mm before day 17 and had to be euthanized earlier.

[7] = in water; cited from earlier work
[8] = Physical and chemical stability as lyophilized powder or dry waxy solid at room temperature; type: physicochemical; details: DHA-dFdC-vitamin E (5.047% w/w) waxy solid mixture, 14 days
Method: A 30% (w/v) stock solution of sucrose as lyoprotectant was prepared with de-ionized and filtered (0.2 μm) water. 900 μL DHA-dFdC-SLNs in water suspension was mixed with 100 μL sucrose solution to obtain a final suspension having 3% (w/v) sucrose. DHA-dFdC-SLNs in suspension were stored at −20° C. for 30 min, transferred to −80° C. for 60 min, and finally transferred to a VirTis Advantage bench top tray lyophilizer (The VirTis Company, Inc. Gardiner, N.Y.). Lyophilization was performed over 72 hours (h) at pressure less than 200 mTorr under nitrogen atmosphere. The shelf temperature was gradually ramped from −40° C. to 26° C. After lyophilization, samples were sealed and stored in a desiccator at room temperature, protected from light.
To evaluate the physical and chemical stability of DHA-dFdC-SLNs in lyophilized powder, DHA-dFdC was extracted from the powder 0, 7, and 30 days post-storage. Lyophilized samples were reconstituted in 1 mL de-ionized and filtered (0.2 μm) water. […] The sample was re-dissolved in 100 μL of THF, and concentration was measured by HPLC.
As a control, DHA-dFdC was dissolved in ethanol and mixed with vitamin E at a final concentration of 5.047% (w/w) (Naguib et al., Neoplasia, 2016; 18(1):33-48). The solution was dried under nitrogen, sealed, and stored at room temperature, protected from light, and the content of DHA-dFdC was measured at various time points

[9] = oral administration, 2 mg DHA-dFdC per mouse

## CC/C=C\C/C=C\C/C=C\C/C=C\C/C=C\C/C=C\CCC(=O)Nc1ccn(C2OC(CO)C(O)C2(F)F)c(=O)n1 (stereo not shown) [DHA-dFdC, 4-(N)-docosahexaenoyl 2′, 2′-difluorodeoxycytidine]
[1]
  antitumor activity: potent and broad spectrum antitumor activity
B16-F10 tumors [2]
  H&E histology findings in tumors: vascular collapse, high desmoplasia, and necrotic areas
B16-F10 tumors [3]; 250 μg DHA-dFdC per mouse daily for 12 days
  survival compared to untreated mice: did not significantly affect mouse survival
B16-F10 tumors [3]; in Tween 80/ethanol/water solution, 250 μg per mouse daily
  mice showing signs of toxicity (body weight decrease of more than 20% or severe tumor ulceration): 62.5%
[4]; female, C57BL/6, mouse, plasma, 2 mg per mouse, oral, in Tween 80/ethanol/water solution
  bioavailability: 54%
[4]; female, C57BL/6, mouse, plasma, po, 2 mg, oral administration, 2 mg DHA-dFdC per mouse, read-out: Tmax
  Tmax: 1.7 h
[4]; female, C57BL/6, plasma, oral administration, 2 mg DHA-dFdC per mouse
  Cmax: 10500 ng/mL
[4]; female, C57BL/6, plasma, oral administration, 2 mg DHA-dFdC per mouse, read-out: AUC 0-24
  AUC(0-t): 114 µg·h/mL
[4]; [9]
  T1/2α: 1.07 h
  Tmax: 1.75 h
  k12: 0.56 h⁻¹
B16-F10 cells
  IC50: 1810 nM
M-Wnt cells
  IC50: 2150 nM
Pancreatic tumor
  control of pancreatic tumor growth versus gemcitabine: significantly more effective than the molar equivalent dose of gemcitabine
[5]
  repeat dose-maximum tolerated dose: 50 mg/kg
B16-F10 tumors [6]
  tumor growth delay: 4 days
  tumor size / control of tumor growth versus comparison groups: no significant difference
[7]
  intrinsic solubility: ~25 µg/mL
[8]
  DHA-dFdC left after storage: 19.1%±7.0
